≈ marks a conversion by molar mass, not a printed value. Where two headings read alike, the source gives them in different places.
How the values were obtained:
[1] = test system: A. baumannii KW1 strains with aminoglycoside resistance plasmids; assay: Etest MIC of aminoglycosides, aminoglycoside-modifying enzyme or 16S rRNA methylase (Table 19); assay type: cell-based, Acinetobacter baumannii
Procedure: (§1) DNA fragments of the resistance genes along with their flanking regions were amplified from clinical plasmids via PCR with specific primer pairs. The resulting PCR fragments were digested and then cloned into the plasmid pYMAb5 or pYMAb5Tc. The resulting plasmids were then transformed into A. baumannii KW1 via electroporation.
(§2) The MICs of antibiotics were determined using the Etest (Biodisk AB, Sweden) according to the manufacturer's instructions. The MICs from the Etest, which fall between standard two-fold dilutions, were rounded up to the next highest two-fold value. The MICs of ceftazidime and cefotaxime against K. pneumoniae NVT1001 harbouring the pACYC177 plasmid with blaOXA-48 were further determined using a broth microdilution test according to the recommendations of the CLSI,^25 and the results were interpreted according to the breakpoints established by the CLSI in 2017.^25 Meanwhile, due to the lack of CLSI breakpoints in 2016 and 2017, the results for cephalothin were interpreted according to the breakpoints established by the CLSI in 2015,^26 and the results for moxifloxacin were interpreted according to the breakpoints established by the EUCAST in 2017.^27

[2] = test system: K. pneumoniae NVT1001 strains with aminoglycoside resistance plasmids; assay: Etest MIC of aminoglycosides, aminoglycoside-modifying enzyme or 16S rRNA methylase (Table 13); assay type: cell-based, Klebsiella pneumoniae
Procedure: DNA fragments of the resistance genes along with their flanking regions were amplified from clinical plasmids via PCR with specific primer pairs. The resulting PCR fragments were digested and then cloned into the plasmid pACYC177 or pACYC184. The resulting plasmids were then transformed into K. pneumoniae strain NVT1001 via electroporation. The recombinant bacteria were plated onto LB agar plates containing kanamycin (50 mg/L) or chloramphenicol (50 mg/L), and the presence of the cloned gene was confirmed via PCR and DNA sequencing.
as §2

[3] = test system: K. pneumoniae NVT1001 and its ΔompK35/36 and/or ΔramR mutants; assay: Etest MIC, OmpK35/36 loss and AcrAB-TolC overexpression (ΔramR) strains (Table 6); assay type: cell-based, Klebsiella pneumoniae; conditions: Klebsiella pneumoniae
Procedure: as §2

[4] = test system: A. baumannii KW1 strains with β-lactamase plasmids; assay: Etest MIC of β-lactams, extended-spectrum β-lactamase, AmpC β-lactamase or carbapenemase (Table 18); assay type: cell-based, Acinetobacter baumannii
Procedure: as §1, §2

[5] = KW1 with AAC(3)-IIa on pYMAb5Tc
[6] = KW1 with ANT(2”)-Ia on pYMAb5Tc
[7] = KW1 with ANT(3”)-Ia on pYMAb5Tc
[8] = KW1 with APH(3')-Ia on pYMAb5Tc
[9] = KW1 with APH(3')-VIa on pYMAb5Tc
[10] = KW1 with shuttle vector pYMAb5Tc
[11] = NVT1001, no supplemental plasmid
[12] = NVT1001 with AAC(3)-IId on pACYC184
[13] = NVT1001 with AAC(3)-IVa on pACYC184
[14] = NVT1001 with AAC(6′)-Ib-cr on pACYC184
[15] = NVT1001 with ANT(2″)-Ia on pACYC184
[16] = NVT1001 with ANT(3″)-Ia on pACYC184
[17] = NVT1001 with APH(3′)-IIa on pACYC184
[18] = NVT1001 with APH(3′)-Ia on pACYC184
[19] = NVT1001 with StrA-StrB on pACYC184

SMILES | MIC ([1]; KW1, no supplemental plasmid) [µg/mL] | MIC [1, 5] [µg/mL] | MIC [1, 6] [µg/mL] | MIC [1, 7] [µg/mL] | MIC [1, 8] [µg/mL] | MIC [1, 9] [µg/mL] | MIC ([1]; KW1 with ArmA on pYMAb5Tc) [µg/mL] | MIC [1, 10] [µg/mL] | MIC [2, 11] [µg/mL] | MIC [2, 12] [µg/mL] | MIC [2, 13] [µg/mL] | MIC [2, 14] [µg/mL] | MIC [2, 15] [µg/mL] | MIC [2, 16] [µg/mL] | MIC [2, 17] [µg/mL] | MIC [2, 18] [µg/mL] | MIC ([2]; NVT1001 with ArmA on pACYC184) [µg/mL] | MIC ([2]; NVT1001 with RmtB on pACYC184) [µg/mL] | MIC [2, 19] [µg/mL] | other results
NCC[C@H](O)C(=O)N[C@@H]1C[C@H](N)[C@@H](O[C@H]2O[C@H](CN)[C@@H](O)[C@H](O)[C@H]2O)[C@H](O)[C@H]1O[C@H]1O[C@H](CO)[C@@H](O)[C@H](N)[C@H]1O [AMK] | 2 | 2 | 2 | 2 | 2 | 2 | >256 | 2 | 2 | 2 | 2 | 8 | 2 | 2 | 2 | 2 | >256 | >256 | 2 | 
NC[C@@H]1O[C@@H](O[C@H]2[C@H](O)[C@@H](O[C@H]3O[C@H](CO)[C@@H](O)[C@H](N)[C@H]3O)[C@H](N)C[C@@H]2N)[C@@H](O)[C@H](O)[C@H]1O [KAN] | 2 | 2 | 4 | 2 | 16 | 16 | >256 | 2 | 2 | 4 | 8 | 32 | >256 | 2 | >256 | >256 | >256 | >256 | 2 | 
CCN[C@@H]1C[C@H](N)[C@@H](O[C@H]2OC(CN)=CC[C@H]2N)[C@H](O)[C@H]1O[C@H]1OC[C@](C)(O)[C@H](NC)[C@H]1O [NET] | 1.5 | 1.5 | 1.5 | 1.5 | 1.5 | 1.5 | >256 | 1.5 | 0.5 | 4 | 64 | 8 | 1 | 0.5 | 0.5 | 0.5 | >256 | >256 | 0.5 | 
CCN[C@@H]1C[C@H](N)[C@@H](O[C@H]2OC(CN)=CC[C@H]2N)[C@H](O)[C@H]1O[C@H]1OC[C@](C)(O)[C@H](NC)[C@H]1O [Netilmicin] |  |  |  |  |  |  |  |  |  |  |  |  |  |  |  |  |  |  |  | MIC ([3]; WT, NVT1001, read-out: MIC): 0.5 µg/mL (≈ 1.05 µM); MIC ([3]; Δ35, ΔompK35 mutant): 0.5 µg/mL (≈ 1.05 µM); MIC ([3]; Δ35/36, ΔompK35/36 mutant): 0.5 µg/mL (≈ 1.05 µM); MIC ([3]; Δ36, ΔompK36 mutant): 0.5 µg/mL (≈ 1.05 µM); MIC ([3]; ΔramR mutant): 0.5 µg/mL (≈ 1.05 µM); MIC ([3]; ΔramRΔ35, ΔramRΔompK35 mutant): 0.25 µg/mL (≈ 0.526 µM); MIC ([3]; ΔramRΔ35/36, ΔramRΔompK35/36 mutant): 0.5 µg/mL (≈ 1.05 µM); MIC ([3]; ΔramRΔ36, ΔramRΔompK36 mutant): 0.5 µg/mL (≈ 1.05 µM); effects on the MIC ([1]; production of aminoglycoside-modifying enzymes): no increase effects
CCN1CCN(C(=O)N[C@@H](C(=O)N[C@@H]2C(=O)N3[C@@H]2SC(C)(C)[C@@H]3C(=O)O)c2ccccc2)C(=O)C1=O [PP] |  |  |  |  |  |  |  |  |  |  |  |  |  |  |  |  |  |  |  | MIC ([4]; KW1, no supplemental plasmid): 12 µg/mL; MIC ([4]; KW1 with ADC-30 on pYMAb5): >256 µg/mL; MIC ([4]; KW1 with CTX-M-15 on pYMAb5): >256 µg/mL; MIC ([4]; KW1 with IMP-1 on pYMAb5): 16 µg/mL; MIC ([4]; KW1 with NDM-1 on pYMAb5): >256 µg/mL; MIC ([4]; KW1 with OXA-23 on pYMAb5): >256 µg/mL; MIC ([4]; KW1 with OXA-58 on pYMAb5): 128 µg/mL; MIC ([4]; KW1 with OXA-66 on pYMAb5): 64 µg/mL; MIC ([4]; KW1 with OXA-72 on pYMAb5): >256 µg/mL; MIC ([4]; KW1 with VEB-3 on pYMAb5): 12 µg/mL; MIC ([4]; KW1 with VIM-1 on pYMAb5): >256 µg/mL; MIC ([4]; KW1 with shuttle vector pYMAb5): 12 µg/mL
CN[C@@H]1[C@H](O)[C@H](NC)[C@H]2O[C@@]3(O)C(=O)C[C@@H](C)O[C@H]3O[C@@H]2[C@H]1O [SPT] | 24 | 24 | 24 | 192 | 24 | 24 | 24 | 24 | 16 | 16 | 16 | 16 | 16 | >1024 | 16 | 16 | 16 | 16 | 16 | 

Source: patent US10760110B2, “Antibiotic testing and screening system” (priority 2017, dated 2020)
